Source: ChEMBL document CHEMBL1795221, “In vitro and in vivo anticancer activity evaluation of ursolic acid derivatives” (Eur J Med Chem, 2011)
Active and inactive are the calls of the source. No cut-off for these calls is given here.

Tests used:
BGC-823 [1] = assay: Cytotoxicity against human BGC823 cells after 24 hrs by MTT assay; format: functional, cell-based; settings: BGC-823, 24 h
SH-SY5Y = assay: Cytotoxicity against human SH-SY5Y cells after 24 hrs by MTT assay; format: functional, cell-based
[2] = Cytotoxicity against human HELF cells after 24 hrs by MTT assay; format: cell-based
HepG2 [3] = assay: Induction of apoptosis in human HepG2 cells at 10 to 30 uM after 24 hrs using acridine orange staining by fluorescence microscopy; format: functional, cell-based
HepG2 [4] = assay: Induction of apoptosis in human HepG2 cells at 10 to 30 uM after 24 hrs using annexin V-EGFP/PI double staining by flow cytometry; format: functional, cell-based
HepG2 [5] = assay: Induction of apoptosis in human HepG2 cells assessed as increase in caspase-3 activity at 10 to 30 uM after 24 hrs by spectrophotometry; format: functional, cell-based
BGC-823 [6] = assay: Induction of apoptosis in human BGC823 cells assessed as increase in caspase-3 activity at 10 to 30 uM after 24 hrs by spectrophotometry; format: functional, cell-based
HepG2 [7] = assay: Cell cycle arrest in human HepG2 cells assessed as accumulation at G0/G1 phase at 10 uM after 24 hrs using propidium iodide staining by flow cytometric analysis (reference value: 57.03 %); format: functional
HepG2 [8] = assay: Cell cycle arrest in human HepG2 cells assessed as accumulation at S phase at 10 uM after 24 hrs using propidium iodide staining by flow cytometric analysis (reference value: 28.66 %); format: functional
HepG2 [9] = assay: Cell cycle arrest in human HepG2 cells assessed as accumulation at G2/M phase at 10 uM after 24 hrs using propidium iodide staining by flow cytometric analysis (reference value: 14.31 %); format: functional
H22 [10] = assay: Antitumor activity against mouse H22 cells xenografted in kunming mouse assessed as inhibition of tumor growth at 100 mg/kg, ip for 7 days; format: functional; settings: 168 h, route intraperitoneal
H22 [11] = assay: Antitumor activity against mouse H22 cells xenografted in kunming mouse assessed as inhibition of tumor growth at 150 mg/kg, ip for 7 days; format: functional; settings: 168 h, route intraperitoneal
H22 [12] = assay: Antitumor activity against mouse H22 cells xenografted in kunming mouse assessed as increase in body weight at 50 to 150 mg/kg, ip for 7 days; format: functional, organism-based
H22 [13] = assay: Antitumor activity against mouse H22 cells xenografted in kunming mouse assessed as inhibition of tumor growth at 50 mg/kg, ip for 7 days; format: functional; settings: 168 h, read-out: INH, route intraperitoneal
HepG2 [14] = assay: Cell cycle arrest in human HepG2 cells assessed as accumulation at G0/G1 phase at 20 uM after 24 hrs using propidium iodide staining by flow cytometric analysis (reference value: 57.03 %); format: functional
HepG2 [15] = assay: Cell cycle arrest in human HepG2 cells assessed as accumulation at S phase at 20 uM after 24 hrs using propidium iodide staining by flow cytometric analysis (reference value: 28.66 %); format: functional
HepG2 [16] = assay: Cell cycle arrest in human HepG2 cells assessed as accumulation at G2/M phase at 20 uM after 24 hrs using propidium iodide staining by flow cytometric analysis (reference value: 14.31 %); format: functional
HepG2 [17] = assay: Cell cycle arrest in human HepG2 cells assessed as accumulation at G0/G1 phase at 30 uM after 24 hrs using propidium iodide staining by flow cytometric analysis (reference value: 57.03 %); format: functional
HepG2 [18] = assay: Cell cycle arrest in human HepG2 cells assessed as accumulation at S phase at 30 uM after 24 hrs using propidium iodide staining by flow cytometric analysis (reference value: 28.66 %); format: functional
HepG2 [19] = assay: Cell cycle arrest in human HepG2 cells assessed as accumulation at G2/M phase at 30 uM after 24 hrs using propidium iodide staining by flow cytometric analysis (reference value: 14.31 %); format: functional
HepG2 [20] = assay: Cell cycle arrest in human HepG2 cells assessed as accumulation at G0/G1 phase after 24 hrs using propidium iodide staining by flow cytometric analysis; format: functional, cell-based
HepG2 [21] = assay: Cell cycle arrest in human HepG2 cells assessed as reduction at G2/M phase after 24 hrs using propidium iodide staining by flow cytometric analysis; format: functional, cell-based
HepG2 [22] = assay: Cell cycle arrest in human HepG2 cells assessed as accumulation at S phase after 24 hrs using propidium iodide staining by flow cytometric analysis; format: functional, cell-based
HepG2 [23] = assay: cells; settings: Homo sapiens, HepG2, 24 h
Description: Cytotoxicity against human HepG2 cells after 24 hrs by MTT assay

HeLa = assay: cells; settings: Homo sapiens, 24 h
Description: Cytotoxicity against human HeLa cells after 24 hrs by MTT assay

H22 [24] = assay: animal or person; settings: Mus musculus, H22, ip, 168 h, read-out: INH
Description: Antitumor activity against mouse H22 cells xenografted in kunming mouse assessed as inhibition of tumor growth at 15 mg/kg, ip for 7 days

Row | Structure (SMILES) | IC50 (BGC-823 [1]) [µM] | IC50 (SH-SY5Y) [µM] | IC50 [2] [µM] | IC50 (HepG2 [23]) [µM] | IC50 (HeLa) [µM] | further results
1 | CC(=O)O[C@H]1CC[C@]2(C)[C@H]3CC=C4[C@@H]5[C@@H](C)[C@H](C)CC[C@]5(C(=O)N(CCO)CCO)CC[C@@]4(C)[C@]3(C)CC[C@H]2C1(C)C | 15.5 | 13.2 | 38.1 | 20.2 | 10.9 | Activity (HepG2 [3]): Active; Activity (HepG2 [4]): Dose-dependent effect; Activity (HepG2 [5]): Dose-dependent effect; Activity (BGC-823 [6]): Dose-dependent effect; Activity (HepG2 [7]): 55.89%; Activity (HepG2 [8]): 32.13%; Activity (HepG2 [9]): 11.98%; inhibition in vivo at 100 mg/kg (H22 [10]): 45.6%; inhibition in vivo at 150 mg/kg (H22 [11]): 43%; Activity (H22 [12]): Active; inhibition in vivo at 50 mg/kg (H22 [13]): 36.6%; Activity (HepG2 [14]): 52.91%; Activity (HepG2 [15]): 37.43%; Activity (HepG2 [16]): 9.66%; Activity (HepG2 [17]): 51.57%; Activity (HepG2 [18]): 41.53%; Activity (HepG2 [19]): 6.9%; Activity (HepG2 [20]): Dose-dependent effect; Activity (HepG2 [21]): Dose-dependent effect; Activity (HepG2 [22]): Dose-dependent effect
2 | CC(=O)O[C@H]1C(=O)[C@@]2(C)[C@H]([C@H](OC(=O)c3ccccc3)[C@]3(O)C[C@H](OC(=O)[C@H](O)[C@@H](NC(=O)c4ccccc4)c4ccccc4)C(C)=C1C3(C)C)[C@]1(OC(C)=O)CO[C@@H]1C[C@@H]2O [PACLITAXEL] | 9.24 | 8.56 | 7.17 | 10.3 | 6.62 | –
3 | C[C@H]1[C@H](C)CC[C@]2(C(=O)OCCCO[N+](=O)[O-])CC[C@]3(C)C(=CC[C@@H]4[C@@]5(C)CC[C@H](O)C(C)(C)[C@@H]5CC[C@]43C)[C@H]12 | 98.3 | 89.6 | 82.6 | 87.4 | 69.4 | –
4 | CC(=O)O[C@H]1CC[C@]2(C)[C@H]3CC=C4[C@@H]5[C@@H](C)[C@H](C)CC[C@]5(C(=O)NCCO)CC[C@@]4(C)[C@]3(C)CC[C@H]2C1(C)C | 48.5 | 49.4 | 27.8 | 46.6 | 16.3 | –
5 | C[C@H]1[C@H](C)CC[C@]2(C(=O)OCCCCO[N+](=O)[O-])CC[C@]3(C)C(=CC[C@@H]4[C@@]5(C)CC[C@H](O)C(C)(C)[C@@H]5CC[C@]43C)[C@H]12 | > 100 | > 100 | > 100 | > 100 | > 100 | –
6 | CC(=O)O[C@H]1CC[C@]2(C)[C@H]3CC=C4[C@@H]5[C@@H](C)[C@H](C)CC[C@]5(C(=O)N5CCN(CCOCCO)CC5)CC[C@@]4(C)[C@]3(C)CC[C@H]2C1(C)C | 12.8 | 9.51 | 38.9 | 15.3 | 6.28 | –
7 | C[C@H]1[C@H](C)CC[C@]2(C(=O)N3CCC(CCO)CC3)CC[C@]3(C)C(=CC[C@@H]4[C@@]5(C)CC[C@H](O)C(C)(C)[C@@H]5CC[C@]43C)[C@H]12 | > 100 | > 100 | > 100 | > 100 | 67.3 | –
8 | O=P1(N(CCCl)CCCl)NCCCO1 (configuration not stated) [CYCLOPHOSPHAMIDE ANHYDROUS] | – | – | – | – | – | inhibition in vivo at 15 mg/kg (H22 [24]): 55%
9 | C[C@H]1[C@H](C)CC[C@]2(C(=O)O)CC[C@]3(C)C(=CC[C@@H]4[C@@]5(C)CC[C@H](O)C(C)(C)[C@@H]5CC[C@]43C)[C@H]12 [URSOLIC ACID] | 66.4 | 54.6 | 21.3 | 68.8 | 33.1 | inhibition in vivo at 150 mg/kg (H22 [11]): 36.2%
10 | CCCCOC(=O)[C@]12CC[C@@H](C)[C@H](C)[C@H]1C1=CC[C@@H]3[C@@]4(C)CC[C@H](OC(C)=O)C(C)(C)[C@@H]4CC[C@@]3(C)[C@]1(C)CC2 | > 100 | > 100 | > 100 | > 100 | > 100 | –
11 | C[C@H]1[C@H](C)CC[C@]2(C(=O)N(CCO)CCO)CC[C@]3(C)C(=CC[C@@H]4[C@@]5(C)CC[C@H](O)C(C)(C)[C@@H]5CC[C@]43C)[C@H]12 | 39.3 | 21.4 | 36.9 | 35.7 | 14.4 | –
12 | CCCOC(=O)[C@]12CC[C@@H](C)[C@H](C)[C@H]1C1=CC[C@@H]3[C@@]4(C)CC[C@H](O)C(C)(C)[C@@H]4CC[C@@]3(C)[C@]1(C)CC2 | 79.7 | 92.5 | > 100 | 89.1 | 48 | –
13 | C[C@H]1[C@H](C)CC[C@]2(C(=O)NC(Cc3ccc(O)cc3)C(=O)O)CC[C@]3(C)C(=CC[C@@H]4[C@@]5(C)CC[C@H](O)C(C)(C)[C@@H]5CC[C@]43C)[C@H]12 (some centres not stated) | > 100 | > 100 | > 100 | > 100 | > 100 | –
14 | C[C@H]1[C@H](C)CC[C@]2(C(=O)NC(CO)C(=O)O)CC[C@]3(C)C(=CC[C@@H]4[C@@]5(C)CC[C@H](O)C(C)(C)[C@@H]5CC[C@]43C)[C@H]12 (some centres not stated) | 79.3 | 72.2 | 60.3 | 83 | 41.6 | –
